Data reported in PubChem BioAssay (NCI).
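Test compounds were applied to cells in 96-well plates for 48 hours at 5 doses. The concentration for 50% growth inhibition is given as GI50. At the TGI there is no net growth.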

How the values were obtained:
Assay in all cases: inhibition of tumour cell growth, NCI panel, 48 h
NCI-H460 lung = tested on: NCI-H460 lung
U251 CNS = tested on: U251 CNS
SNB-19 CNS = tested on: SNB-19 CNS
MDA-MB-435 = tested on: MDA-MB-435
SN12C renal = tested on: SN12C renal
SF-539 CNS = tested on: SF-539 CNS
HT29 colon = tested on: HT29 colon
HCC-2998 colon = tested on: HCC-2998 colon
OVCAR-8 ovarian = tested on: OVCAR-8 ovarian
UACC-257 melanoma = tested on: UACC-257 melanoma
UO-31 renal = tested on: UO-31 renal
SK-OV-3 ovarian = tested on: SK-OV-3 ovarian
OVCAR-4 ovarian = tested on: OVCAR-4 ovarian
SNB-75 CNS = tested on: SNB-75 CNS
OVCAR-3 ovarian = tested on: OVCAR-3 ovarian
HOP-62 NSCLC = tested on: HOP-62 NSCLC
PC-3 prostate = tested on: PC-3 prostate
RPMI-8226 leukemia = tested on: RPMI-8226 leukemia
HL-60(TB) leukemia = tested on: HL-60(TB) leukemia
K-562 leukemia = tested on: K-562 leukemia
SF-295 CNS = tested on: SF-295 CNS
SR leukemia = tested on: SR leukemia
LOX IMVI melanoma = tested on: LOX IMVI melanoma
NCI/ADR-RES ovarian = tested on: NCI/ADR-RES ovarian
HOP-92 NSCLC = tested on: HOP-92 NSCLC
SW-620 colon = tested on: SW-620 colon
HCT-116 colon = tested on: HCT-116 colon
EKVX NSCLC = tested on: EKVX NSCLC

## CN(C)CCCNc1c2ccc(Cl)cc2nc2c1oc1ccccc12
NCI-H460 lung
  GI50: 1.64 µM
  TGI: 8.1 µM
U251 CNS
  GI50: 2.69 µM
  TGI: 10.3 µM
SNB-19 CNS
  GI50: 3.37 µM
  TGI: 20.5 µM
MDA-MB-435
  GI50: 1.65 µM
  TGI: 3.32 µM
SN12C renal
  GI50: 2.5 µM
  TGI: 11.6 µM
SF-539 CNS
  GI50: 1.76 µM
  TGI: 3.39 µM
HT29 colon
  GI50: 1.34 µM
  TGI: 3.58 µM
HCC-2998 colon
  GI50: 1.77 µM
  TGI: 4.18 µM
OVCAR-8 ovarian
  GI50: 2.42 µM
  TGI: 7.87 µM
UACC-257 melanoma
  GI50: 3.79 µM
  TGI: 15.2 µM
UO-31 renal
  GI50: 2.09 µM
  TGI: 12.8 µM
SK-OV-3 ovarian
  GI50: 3.04 µM
  TGI: 11.2 µM
OVCAR-4 ovarian
  GI50: 2.12 µM
  TGI: 6.89 µM
SNB-75 CNS
  GI50: 1.68 µM
  TGI: 4.66 µM
OVCAR-3 ovarian
  GI50: 3.45 µM
  TGI: 15.6 µM
HOP-62 NSCLC
  GI50: 2.61 µM
  TGI: 9.05 µM
PC-3 prostate
  GI50: 2.16 µM
  TGI: 6.13 µM
RPMI-8226 leukemia
  GI50: 2.27 µM
  TGI: 5.94 µM
HL-60(TB) leukemia
  GI50: 2.52 µM
  TGI: 8.94 µM
K-562 leukemia
  GI50: 2.02 µM
  TGI: 11.7 µM
SF-295 CNS
  GI50: 3.41 µM
  TGI: 15.3 µM
SR leukemia
  GI50: 2.34 µM
  TGI: 10.3 µM
LOX IMVI melanoma
  GI50: 1.86 µM
  TGI: 4.1 µM
NCI/ADR-RES ovarian
  GI50: 1.91 µM
  TGI: 12.6 µM
HOP-92 NSCLC
  GI50: 1.34 µM
  TGI: 5.13 µM
SW-620 colon
  GI50: 1.24 µM
  TGI: 10.1 µM
HCT-116 colon
  GI50: 1.42 µM
  TGI: 8.19 µM
EKVX NSCLC
  GI50: 3.51 µM
  TGI: 21.3 µM
